In patent publication US20120225889A1, “USE OF MACROCYCLIC LACTONE DERIVATIVES FOR THE TREATMENT OF INFLAMMATORY DISORDERS” (PIRAMAL LIFE SCIENCES LIMITED, priority 2010, published 2012) one finds IC50 data, which are given here for 1 compound.

What all share (type): cell-based
For assay [1], the system named is TNF-α. Put plainly: Screening in LPS stimulated THP-1 cells: TNF-α. As to conditions: Homo sapiens, 24 h, ELISA. The method, then: IL-6 (BD Biosciences, USA) production by LPS (Escherchia coli 0127:B8, Sigma, USA) in THP-1 cells (ATCC number: TIB202) was designed as in reference, Journal of Immunology, 151, 5631-5638, (1993), the disclosure of which is incorporated by reference for the teaching of the assay.
THP-1 cells were cultured in RPMI 1640 culture medium (Gibco BRL, UK) containing 100 U/mL penicillin and […] streptomycin, (100× solution, Sigma, USA) containing 10% FBS (JRH Biosciences, USA). 25,000 cells were seeded per well in 96-well plate (Nunc, USA). The cells were differentiated with PMA (Sigma, USA, prepared as 100 μg/mL stock in RPMI and was diluted to 5 ng/mL). The test compound (prepared as 20 mM stock in DMSO and diluted with DMSO to achieve the following final concentrations in the assay: 100, 10, 1, 0.1, 0.01, 0.001 and 0.0001 μM) or vehicle (0.5% DMSO) were added to the cells and the cells were incubated for 30 min at 37° C. LPS (Sigma, USA, prepared as 1 mg/mL stock in PBS) was added to achieve a final concentration of 1 μg/mL. Plates were incubated at 37° C. for 24 h at 5% CO2. Supernatants were harvested, and assayed for TNF-α and IL-6 by ELISA as described by the manufacturer (BD Biosciences, USA). Percent inhibition of cytokine release compared to the control was calculated. The IC50 values were calculated by a nonlinear regression method.

Assay [2] deals with TNF-α. Put plainly: Cytokine release assay in hPBMCs: TNF-α. As to conditions: Homo sapiens. The procedure: hPBMCs were obtained from healthy donors by centrifugation of heparinized venous blood over Ficoll/Hypaque solution (Histopaque-1077, Sigma, USA). Isolated hPBMCs were suspended in RPMI 1640 culture medium supplemented with 10% FBS and seeded at a density of 50,000 cells/well in a 96-well plate (Nunc, USA). The cells were incubated at 37° C., 5% CO2 for a period of 24 h. These cells were used for the lymphocyte proliferation as well as cytokine release assay.
The plated cells were treated with different concentrations of the test compound (prepared as mM stock in DMSO and diluted with DMSO to achieve the following final concentrations in the assay: 100, 10, 1, 0.1, 0.01, 0.001, 0.0001, 0.00001 and 0.000001 μM) and incubated for 30 min. The cells were then stimulated with PHA (prepared as 1 mg/mL stock in RPMI 1640 culture medium and used at a final concentration of 5 μg/mL). FK506 was used as a standard. The plates were incubated at 37° C., 5% CO2 for 48 h. The cytokines in the supernatant collected were detected using ELISA kit (BD biosciences, USA). The cytokines evaluated in the assay were TNF-α, IL-2, IL-6, and IFN-γ.

For assay [3], the system named is IL-6. As to the kind of experiment: Human monocyte assay (LPS-induced): IL-6. As to conditions: LPS stimulated human monocytes, 5 h. The text has this:
The assay was designed as in reference, Physiological Research, 52, 593-598, (2003), the disclosure of which is incorporated by reference for the teaching of the assay.
The objective of the assay is to determine whether compounds of the present invention—mediated inhibition of LPS-induced cytokines from monocytic THP-1 cell line translates to physiologically relevant human cells. Accordingly, the effect of compounds of the present invention on LPS—induced cytokine production from freshly isolated human monocytes was ascertained.
Peripheral blood was collected from healthy donors into potassium EDTA vacutainer tubes (BD Biosciences, USA). hPBMCs were isolated using density gradient separation (Histopaque-1077; Sigma, USA) and suspended in assay medium which is RPMI culture medium (Sigma, USA) containing 10% heat inactivated FBS (JRH Biosciences, Australia), 100 U/mL penicillin (Sigma, USA) and […] streptomycin (Sigma, USA). Monocytes in the hPBMCs were counted using a Coulter Counter following which the cells were resuspended at 2×10^5 monocytes/mL of assay medium. A cell suspension containing 2×10^4 monocytes was aliquoted per well of a 96-well plate (Nunc, USA). Subsequently, the hPBMCs were incubated for 4-5 h at 37° C., 5% CO2. During the incubation, the monocytes adhered to the bottom of 96-well plate. Following the incubation, the non-adherent lymphocytes were washed and assay medium was added to adherent monocytes. After 48 h of incubation at 37° C., 5% CO2, monocytes were pre-treated with various concentrations of test compound (prepared as 20 mM stock in DMSO; 1 μL of […] concentrated solution of test compound was dissolved in 200 μL cell suspension to achieve a final concentration of 0.03, 0.1, 0.3, 1, 3, 10, 30 and 100 μM) or vehicle (0.5% DMSO) or 10 μM dexamethasone (standard IL-6 and TNF-α inhibitor, Sigma, USA) for 30 min at 37° C., 5% CO2 and stimulated with 1 μg/mL LPS (Escherchia coli 0111:B4, Sigma, USA). The cells were then incubated for 5 h at 37° C., 5% CO2 following which supernatants were collected, stored at −70° C. and were assayed later for IL-6, and TNF-α by ELISA (OptiEIA ELISA sets, BD Biosciences, USA). The IC50 values were calculated by a nonlinear regression method using Graph Pad software (Prism 3.03).

Consider `C/C=C/C(O)C(C)/C=C/C(=N\O)C(C)C(O)C(C)C1OC(=O)/C(OC)=C/C(C)=C/C(C)C(O)C(CC)C(O)C(C)C/C(C)=C/C=C/C1OC` (stereo not shown) [Compound of example 7, (3Z,5E,13E,15E)-18-((5Z,6E,10E)-3,9-Dihydroxy-5-(hydroxymino)-4,8-dimethyldodeca-6,10-dien-2-yl)-9-ethyl-8,10-dihydroxy-3,17-dimethoxy-5,7,11,13-tetramethyl oxacyclooctadeca-3,5,13,15-tetraen-2-one], for which the IC50 worked out at 18000 nM in assay [1]; 0.02 µM in assay [2] (Table 3: PHA-PMA induced hPBMC's, 48 h, read-out: TNF-α IC50); 0.07 µM in assay [2] (Table 4: mitogen stimulated production from hPBMC's, read-out: TNF-α (IC50 μM)); 300 nM in assay [3].
